Data as given in ChEMBL document CHEMBL1201862, “PubChem BioAssay data set” (2004).
Activity calls are given as the source filed them.

How the values were obtained:
[1] = test system: Staphylococcus aureus; experiment: Inhibitors of Bacterial Quorum Sensing Structure Activity Relationship (SAR) Analysis: Dose Response Assay. [Related pubchem assays: 700, 527 ]; format: functional, organism-based
[2] = biological target: Chaperone protein dnaK (Escherichia coli, UniProt C3TRK2); experiment: E. coli DnaK binders, calorimetric Kd – biophysical, isothermal titration calorimetry, beta-domain, full-length DnaK, orthogonal assay for DnaK modulator project, SAR follow-up (AID 1495)
[3] = biological target: Lysosomal acid glucosylceramidase (Homo sapiens, UniProt P04062); experiment: Dose response cell-based high throughput screening assay to identify enhancers of beta-glucosidase activity. [Related pubchem assays: 784 ]; format: functional
[4] = luciferase reporter signal suppression in cells – H4 neuroglioma cells, luminescence, dose response (AID 1990); format: functional, cell-based
[5] = biological target: T1, Ubiquitin-conjugating enzyme E2 N (Homo sapiens, UniProt P61088); format: functional;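 further: Dose-response confirmation in a TR-FRET assay detecting UBC13-driven polyubiquitin chain formation, inhibition measured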
T1 sequence (P61088 whole entry): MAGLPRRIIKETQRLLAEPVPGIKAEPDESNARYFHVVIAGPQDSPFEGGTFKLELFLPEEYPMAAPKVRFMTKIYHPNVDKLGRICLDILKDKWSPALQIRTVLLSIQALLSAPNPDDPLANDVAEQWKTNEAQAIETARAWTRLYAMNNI

[6] = Luminescence Cell-Based Dose Response HTS to Identify Inhibitors of 5'UTR Stem-Loop Driven Prion Protein mRNA Translation in H4 Neuroglioblastoma Cells. [Related pubchem assays: 1827 (Project Summary), 1813 (Primary HTS)]; format: functional
[7] = biological target: Cyclin-dependent kinase 5/CDK5 activator 1 (Homo sapiens, UniProt Q00535); experiment: blockade of human CDK5 activity – biochemical, cherry-picked samples, set 2, dose response (AID 504545)
[8] = alpha-synuclein stem-loop luciferase translation blockers – H4 neuroglioma cells, luminescence, confirmation (AID 1988); format: functional, cell-based
[9] = biological target: Eukaryotic translation initiation factor 4H (Homo sapiens, UniProt Q15056); experiment: eIF4H binding inhibition – biochemical, uHTS, fluorescence polarization, translation initiation inhibitor project, primary screen (AID 2012)
[10] = biological target: Polyadenylate-binding protein 1 (Homo sapiens, UniProt P11940); experiment: blockers of PABP interaction with poly(A) – biochemical, fluorescence polarization, […] (AID 2014)
[11] = biological target: T2, Delta-type opioid receptor (Homo sapiens, UniProt P41143); experiment: DOR agonists, SAR follow-up, image-based (AID 2370); format: functional
[12] = biological target: T3, Mu-type opioid receptor (Homo sapiens, UniProt P35372); experiment: mu opioid receptor blockers – image-based, SAR follow-up (AID 2420); format: functional;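 further: compounds added before stimulation of receptor with agonist DAMGO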
[13] = biological target: T4, Kappa-type opioid receptor (Homo sapiens, UniProt P41145); experiment: SAR analysis of small molecule agonists of the kappa opioid receptor via a luminescent beta-arrestin assay. [Related pubchem assays (depositor defined):AID1777, AID1786, AID1966, AID2133, AID2136, AID2348, AID2352, AID2357, AID2359, AID2370, AID2420, AID2478, AID2491, AID2492, AID2493, AID2497, AID2498, AID2500, AID449737, AID488822, AID488842]; format: functional
[14] = biological target: T4, Kappa-type opioid receptor; experiment: kappa opioid receptor blockers, image-based, SAR follow-up (AID 2348); format: functional
[15] = biological target: T2, Delta-type opioid receptor; experiment: delta opioid receptor blockers – image-based, SAR follow-up (AID 2357); format: functional
[16] = biological target: T4, Kappa-type opioid receptor; experiment: kappa opioid receptor activation potency – imaging, image-based, SAR follow-up (AID 2359); format: functional
[17] = biological target: T3, Mu-type opioid receptor; experiment: mu opioid receptor activators, image-based, SAR follow-up (AID 2352); format: functional
[18] = biological target: Melanin-concentrating hormone receptor 1 (Homo sapiens, UniProt Q99705); experiment: Late-stage fluorescence-based counterscreen for antagonists of the G-protein coupled receptor 7 (GPR7): cell-based dose response assay to identify antagonists of the melanin-concentrating hormone receptor 1 (MCHR1). [Related pubchem assays (depositor defined):AID1861, AID1880, AID1952, AID2148, AID2251, AID2257, AID485339]; format: functional;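 further: stimulated with 30 nM MCH peptide agonist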
[19] = biological target: Cytochrome P450 2D6 (Homo sapiens, UniProt P10635); experiment: qHTS Assay for Inhibitors and Substrates of Cytochrome P450 2D6. [Related pubchem assays: 410 ]; format: ADME; settings: read-out: Potency
[20] = test system: HEK293; experiment: Fluorescence-based counterscreen for potentiators or agonists of NPY-Y2: cell-based high-throughput dose response assay to identify inhibitors of cyclic nucleotide gated ion channel (CNGC) activity. In this assay, the parental HEK293 cell line transfected with a cyclic-nucleotide gated ion channel (CNGC)-based cAMP sensor is used to measure inhibition of isoproterenol-induced CNGC activity by test compound.; format: functional; settings: Homo sapiens;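 further: stimulus is 1 µM isoproterenol at EC100 plus PDE inhibitor Ro 20-1724 at 25 µM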
[21] = biological target: Neuropeptide Y receptor type 2 (Homo sapiens, UniProt P49146); experiment: Fluorescence-based cell-based high-throughput dose response assay for agonists of NPY-Y2. [Related pubchem assays: 1703 (Screening assay (CNGC inhibitors).), 1359 (Screening assay (NPY-Y2 potentiators or agonists).), 1304 (Screening assay (NPY-Y1 potentiators or agonists).), 1710 (Screening assay (NPY-Y2 agonists).), 1791 (Summary AID.)]; format: functional
[22] = biological target: Neuropeptide Y receptor type 1 (Homo sapiens, UniProt P25929); experiment: Fluorescence-based counterscreen for agonists of NPY-Y2: cell-based high-throughput dose response assay for agonists of NPY-Y1.; format: functional
[23] = test system: Vero; experiment: cells; format: functional; settings: Chlorocebus sabaeus
[24] = test system: Vero; experiment: cells; format: functional, cell-based; settings: Chlorocebus sabaeus
[25] = CCR5-tropic HIV-1 fusion blockers – cell-based, CCR5-tropic Env, dose response (AID 2279); format: functional
[26] = biological target: T5, RNA-binding protein pos-1 (Caenorhabditis elegans, UniProt G5EF15); experiment: disruptors of C. elegans POS-1 RNA interaction – biochemical, fluorescence polarization, dose response (AID 1964);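 further: purified POS-1 fused to maltose binding protein made in E. coli; potency of compounds blocking POS-1 binding to fluorescent RNA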
T5 sequence (G5EF15 whole entry): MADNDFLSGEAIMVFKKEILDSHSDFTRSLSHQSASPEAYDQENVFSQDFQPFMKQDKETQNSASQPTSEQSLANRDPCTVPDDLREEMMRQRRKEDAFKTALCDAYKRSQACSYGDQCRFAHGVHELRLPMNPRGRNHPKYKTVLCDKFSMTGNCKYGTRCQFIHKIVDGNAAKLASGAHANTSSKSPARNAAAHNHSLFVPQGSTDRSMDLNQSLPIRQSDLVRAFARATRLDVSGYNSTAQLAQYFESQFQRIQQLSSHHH

[27] = biological target: T6, Streptokinase A (Streptococcus pyogenes serotype M1, UniProt P10520); experiment: viability-normalized secreted streptokinase activity reduction – plasminogen activation absorbance, OD405, dose response (AID 1914); format: functional, Streptococcus pyogenes M1 GAS;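 further: secreted streptokinase activity via plasminogen activation per viability signal from cell pellet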
T6 sequence (P10520 whole entry): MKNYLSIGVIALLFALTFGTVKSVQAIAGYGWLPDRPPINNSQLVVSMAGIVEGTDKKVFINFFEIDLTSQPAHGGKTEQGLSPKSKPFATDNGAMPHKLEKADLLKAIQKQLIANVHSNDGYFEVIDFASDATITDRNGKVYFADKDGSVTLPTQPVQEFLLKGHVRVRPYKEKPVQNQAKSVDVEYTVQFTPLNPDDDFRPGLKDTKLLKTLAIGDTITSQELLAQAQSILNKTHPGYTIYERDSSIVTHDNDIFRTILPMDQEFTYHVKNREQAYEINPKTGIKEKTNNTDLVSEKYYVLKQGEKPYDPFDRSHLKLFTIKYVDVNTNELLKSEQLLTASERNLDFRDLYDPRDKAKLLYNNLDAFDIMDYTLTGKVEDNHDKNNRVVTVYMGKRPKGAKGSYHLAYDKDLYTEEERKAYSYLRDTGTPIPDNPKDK

[28] = biological target: Genome polyprotein (dengue virus type 2, UniProt P29990); experiment: flavivirus cap methylation enzyme inhibition – biochemical, confirmation dose response, primary screen (AID 588689); format: functional
[29] = test system: Vero; experiment: viability of Vero cells under compound – cytotoxicity control for flavivirus capping enzyme inhibitors (AID 588742); format: functional; settings: Chlorocebus sabaeus
[30] = biological target: DNA (cytosine-5)-methyltransferase 1 (Homo sapiens, UniProt P26358); experiment: inhibition of DNA methylation by DNMT1 – biochemical, fluorescent molecular beacon, confirmation (AID 602386); format: functional
[31] = test system: Streptococcus; experiment: GAS UMAA2166 growth inhibition – luminescence, BacTiterGlo, counter-screen for streptokinase expression inhibitor project, dose response (AID 1915); format: functional, organism-based;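 further: potency for reduction of bacterial viability or growth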
[32] = biological target: T7, Zinc finger protein mex-5 (Caenorhabditis elegans, UniProt Q9XUB2); experiment: potency of MEX-5 RNA-binding blockers – biochemical, C. elegans, fluorescence polarization, dose response (AID 1960)
T7 sequence (Q9XUB2 whole entry): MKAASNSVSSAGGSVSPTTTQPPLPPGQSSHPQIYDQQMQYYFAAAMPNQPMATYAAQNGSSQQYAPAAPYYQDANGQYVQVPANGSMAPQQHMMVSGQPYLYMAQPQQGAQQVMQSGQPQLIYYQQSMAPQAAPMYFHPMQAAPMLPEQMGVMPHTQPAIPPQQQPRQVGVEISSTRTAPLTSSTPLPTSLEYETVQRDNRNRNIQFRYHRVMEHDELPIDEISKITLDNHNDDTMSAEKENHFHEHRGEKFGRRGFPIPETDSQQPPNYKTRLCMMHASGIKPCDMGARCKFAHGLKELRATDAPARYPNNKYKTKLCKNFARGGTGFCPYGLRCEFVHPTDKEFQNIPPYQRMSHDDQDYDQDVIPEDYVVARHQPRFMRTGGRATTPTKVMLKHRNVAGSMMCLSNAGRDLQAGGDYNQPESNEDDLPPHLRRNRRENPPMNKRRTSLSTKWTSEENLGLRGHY

[33] = test system: Streptococcus sp. 'group A'; experiment: Streptococcus pyogenes SK(-)GAS viability under kanamycin – luminescence, BacTiterGlo, confirmation, counter-screen for streptokinase expression inhibitor project, dose response (AID 1900); format: functional, organism-based
[34] = biological target: Heat shock protein HSP 90-alpha (Homo sapiens, UniProt P07900); format: functional, organism-based
[35] = biological target: Luciferin 4-monooxygenase (Photinus pyralis, UniProt P08659); experiment: Counter Screen for Luciferase-based Assay Positives. [Related pubchem assays: 620, 618, 411 ]
[36] = biological target: T8, Oxysterols receptor LXR-beta (Homo sapiens, UniProt P55055); format: functional, cell-based;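 further: Cell-based luminescence dose-response assay of agonist activity at LXR, run as a confirmatory counterscreen to a daf-12 agonist screen; HEK293 cells with Gal4-LXR fusion and GAL4-driven luciferase reporter; agonist potency from rising luciferase signal of a Gal4-LXR reporter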
T8 sequence (P55055 whole entry): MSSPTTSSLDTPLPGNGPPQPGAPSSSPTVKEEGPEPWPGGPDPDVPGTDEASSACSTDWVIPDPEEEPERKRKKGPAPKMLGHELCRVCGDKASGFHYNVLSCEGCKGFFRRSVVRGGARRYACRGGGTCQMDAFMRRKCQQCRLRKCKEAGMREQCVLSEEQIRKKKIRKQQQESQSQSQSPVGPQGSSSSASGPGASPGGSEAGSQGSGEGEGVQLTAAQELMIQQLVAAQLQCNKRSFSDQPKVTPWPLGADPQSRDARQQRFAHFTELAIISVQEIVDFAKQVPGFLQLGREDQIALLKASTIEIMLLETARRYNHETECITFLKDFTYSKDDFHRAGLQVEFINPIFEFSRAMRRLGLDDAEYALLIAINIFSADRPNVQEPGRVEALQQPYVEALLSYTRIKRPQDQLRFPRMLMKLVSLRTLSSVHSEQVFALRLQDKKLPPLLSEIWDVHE

[37] = test system: HT-1080; experiment: HT1080 cell viability loss – fluorescence readout (AID 620); format: functional, cell-based; settings: Homo sapiens
[38] = cells

T4 sequence (P41145 whole entry): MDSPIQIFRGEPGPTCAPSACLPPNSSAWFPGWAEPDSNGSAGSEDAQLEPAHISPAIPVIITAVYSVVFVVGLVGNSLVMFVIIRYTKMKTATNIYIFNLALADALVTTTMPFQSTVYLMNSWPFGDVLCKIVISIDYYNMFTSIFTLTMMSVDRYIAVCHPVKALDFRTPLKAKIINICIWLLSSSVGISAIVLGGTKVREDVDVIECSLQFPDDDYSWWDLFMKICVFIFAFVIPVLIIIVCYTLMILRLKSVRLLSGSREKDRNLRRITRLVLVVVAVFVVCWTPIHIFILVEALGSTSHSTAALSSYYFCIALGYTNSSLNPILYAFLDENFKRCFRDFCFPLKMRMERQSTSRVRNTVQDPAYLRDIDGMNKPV
T3 sequence (P35372 whole entry): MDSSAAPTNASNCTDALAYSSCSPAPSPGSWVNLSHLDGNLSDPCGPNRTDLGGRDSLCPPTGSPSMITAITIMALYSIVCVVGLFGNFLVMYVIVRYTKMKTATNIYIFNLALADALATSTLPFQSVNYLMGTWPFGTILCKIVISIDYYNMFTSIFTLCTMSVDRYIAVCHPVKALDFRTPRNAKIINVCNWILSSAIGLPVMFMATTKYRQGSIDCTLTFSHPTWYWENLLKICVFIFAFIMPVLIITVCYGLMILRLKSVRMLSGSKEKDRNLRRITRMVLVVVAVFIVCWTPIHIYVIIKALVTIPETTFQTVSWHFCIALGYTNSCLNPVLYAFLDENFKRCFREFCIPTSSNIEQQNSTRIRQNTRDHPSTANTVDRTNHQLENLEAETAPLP
T2 sequence (P41143 whole entry): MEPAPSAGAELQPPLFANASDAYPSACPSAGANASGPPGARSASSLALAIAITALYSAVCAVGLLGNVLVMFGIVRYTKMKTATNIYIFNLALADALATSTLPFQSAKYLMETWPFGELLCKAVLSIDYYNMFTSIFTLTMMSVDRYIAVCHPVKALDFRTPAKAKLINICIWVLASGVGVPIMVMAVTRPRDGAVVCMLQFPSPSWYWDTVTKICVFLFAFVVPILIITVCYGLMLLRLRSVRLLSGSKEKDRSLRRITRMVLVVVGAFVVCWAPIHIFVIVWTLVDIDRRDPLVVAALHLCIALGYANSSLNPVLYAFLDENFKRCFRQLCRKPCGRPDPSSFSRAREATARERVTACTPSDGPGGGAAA
Chain of DNA (cytosine-5)-methyltransferase 1 (P26358 whole entry): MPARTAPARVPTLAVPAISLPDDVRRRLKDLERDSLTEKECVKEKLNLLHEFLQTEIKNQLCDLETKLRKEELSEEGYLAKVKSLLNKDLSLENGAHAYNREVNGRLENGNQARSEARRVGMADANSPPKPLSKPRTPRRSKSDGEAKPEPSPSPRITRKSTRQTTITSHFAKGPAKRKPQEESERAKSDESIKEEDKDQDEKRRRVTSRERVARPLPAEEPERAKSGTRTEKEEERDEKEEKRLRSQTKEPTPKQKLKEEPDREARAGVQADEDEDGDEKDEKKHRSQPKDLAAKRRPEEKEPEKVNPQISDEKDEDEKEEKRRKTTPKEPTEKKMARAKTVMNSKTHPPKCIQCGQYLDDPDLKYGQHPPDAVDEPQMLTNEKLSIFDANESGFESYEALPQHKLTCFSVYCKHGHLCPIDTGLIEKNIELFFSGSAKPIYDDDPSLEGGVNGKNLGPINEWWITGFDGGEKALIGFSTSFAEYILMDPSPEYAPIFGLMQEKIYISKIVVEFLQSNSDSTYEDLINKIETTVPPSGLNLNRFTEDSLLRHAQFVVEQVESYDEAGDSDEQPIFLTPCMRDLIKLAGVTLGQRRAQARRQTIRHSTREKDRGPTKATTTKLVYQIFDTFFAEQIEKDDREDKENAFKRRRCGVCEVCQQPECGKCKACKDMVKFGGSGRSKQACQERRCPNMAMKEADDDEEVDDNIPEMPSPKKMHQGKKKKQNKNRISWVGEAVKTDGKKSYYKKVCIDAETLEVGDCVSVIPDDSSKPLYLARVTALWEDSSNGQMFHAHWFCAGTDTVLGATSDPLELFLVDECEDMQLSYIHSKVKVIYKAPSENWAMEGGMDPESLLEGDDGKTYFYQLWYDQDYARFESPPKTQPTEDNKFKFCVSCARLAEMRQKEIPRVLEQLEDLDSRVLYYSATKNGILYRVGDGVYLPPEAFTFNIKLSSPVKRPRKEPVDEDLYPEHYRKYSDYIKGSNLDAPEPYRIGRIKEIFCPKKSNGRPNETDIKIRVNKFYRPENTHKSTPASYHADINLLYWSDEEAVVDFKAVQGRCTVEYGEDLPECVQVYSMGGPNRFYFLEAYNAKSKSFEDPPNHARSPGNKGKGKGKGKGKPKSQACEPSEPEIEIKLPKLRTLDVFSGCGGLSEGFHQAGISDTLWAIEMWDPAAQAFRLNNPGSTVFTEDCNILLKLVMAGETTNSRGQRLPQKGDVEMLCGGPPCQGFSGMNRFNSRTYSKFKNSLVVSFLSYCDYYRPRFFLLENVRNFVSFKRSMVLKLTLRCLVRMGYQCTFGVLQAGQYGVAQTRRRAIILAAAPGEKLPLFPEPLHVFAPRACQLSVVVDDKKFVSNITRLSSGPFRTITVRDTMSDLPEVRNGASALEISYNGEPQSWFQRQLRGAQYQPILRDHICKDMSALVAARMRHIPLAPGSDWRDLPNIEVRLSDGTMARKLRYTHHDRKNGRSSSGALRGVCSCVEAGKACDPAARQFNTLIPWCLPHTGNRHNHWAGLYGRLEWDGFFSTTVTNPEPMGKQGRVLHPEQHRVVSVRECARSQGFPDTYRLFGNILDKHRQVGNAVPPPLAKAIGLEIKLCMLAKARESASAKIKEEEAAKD
Chain of Cytochrome P450 2D6 (P10635 whole entry): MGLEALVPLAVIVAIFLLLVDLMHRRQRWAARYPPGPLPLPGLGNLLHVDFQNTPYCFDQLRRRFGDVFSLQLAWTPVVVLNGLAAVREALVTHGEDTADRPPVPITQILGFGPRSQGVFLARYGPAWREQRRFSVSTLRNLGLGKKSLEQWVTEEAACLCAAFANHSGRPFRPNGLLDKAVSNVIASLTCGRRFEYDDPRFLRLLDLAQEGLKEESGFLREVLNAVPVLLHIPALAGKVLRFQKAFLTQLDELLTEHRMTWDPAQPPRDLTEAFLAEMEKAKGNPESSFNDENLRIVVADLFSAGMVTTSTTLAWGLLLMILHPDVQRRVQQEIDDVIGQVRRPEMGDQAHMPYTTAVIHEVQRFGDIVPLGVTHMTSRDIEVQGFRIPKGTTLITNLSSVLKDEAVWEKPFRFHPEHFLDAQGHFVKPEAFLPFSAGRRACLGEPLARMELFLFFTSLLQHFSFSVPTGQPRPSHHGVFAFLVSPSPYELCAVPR
Chain of Neuropeptide Y receptor type 2 (P49146 whole entry): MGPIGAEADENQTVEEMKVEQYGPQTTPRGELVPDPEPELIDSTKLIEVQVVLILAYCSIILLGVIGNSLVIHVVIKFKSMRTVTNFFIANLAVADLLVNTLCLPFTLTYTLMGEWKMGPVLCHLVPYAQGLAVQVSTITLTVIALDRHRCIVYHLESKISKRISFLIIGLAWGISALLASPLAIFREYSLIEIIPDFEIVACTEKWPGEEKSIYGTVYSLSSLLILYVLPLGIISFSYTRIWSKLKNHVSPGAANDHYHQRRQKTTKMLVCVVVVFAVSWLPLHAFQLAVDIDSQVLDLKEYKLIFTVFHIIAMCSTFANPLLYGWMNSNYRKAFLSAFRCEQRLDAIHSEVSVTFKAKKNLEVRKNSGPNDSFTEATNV
Chain of Chaperone protein dnaK (C3TRK2 whole entry): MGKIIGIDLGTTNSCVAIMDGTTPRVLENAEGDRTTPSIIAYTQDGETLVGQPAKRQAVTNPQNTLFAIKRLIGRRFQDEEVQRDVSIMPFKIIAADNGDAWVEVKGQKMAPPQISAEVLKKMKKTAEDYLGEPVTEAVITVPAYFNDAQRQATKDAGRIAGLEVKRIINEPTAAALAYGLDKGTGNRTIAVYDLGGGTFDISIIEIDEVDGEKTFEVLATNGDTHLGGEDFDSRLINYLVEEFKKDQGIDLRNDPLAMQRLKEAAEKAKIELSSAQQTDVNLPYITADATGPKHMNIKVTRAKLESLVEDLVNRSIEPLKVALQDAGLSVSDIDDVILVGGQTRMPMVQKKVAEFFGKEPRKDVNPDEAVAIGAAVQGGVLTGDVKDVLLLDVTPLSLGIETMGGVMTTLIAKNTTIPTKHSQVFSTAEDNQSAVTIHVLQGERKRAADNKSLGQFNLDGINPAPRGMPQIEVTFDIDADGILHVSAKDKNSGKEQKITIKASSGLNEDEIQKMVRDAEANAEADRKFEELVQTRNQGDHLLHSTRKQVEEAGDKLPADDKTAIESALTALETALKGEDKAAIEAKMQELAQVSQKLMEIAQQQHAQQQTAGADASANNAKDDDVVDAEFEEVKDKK
Chain of Melanin-concentrating hormone receptor 1 (Q99705 whole entry): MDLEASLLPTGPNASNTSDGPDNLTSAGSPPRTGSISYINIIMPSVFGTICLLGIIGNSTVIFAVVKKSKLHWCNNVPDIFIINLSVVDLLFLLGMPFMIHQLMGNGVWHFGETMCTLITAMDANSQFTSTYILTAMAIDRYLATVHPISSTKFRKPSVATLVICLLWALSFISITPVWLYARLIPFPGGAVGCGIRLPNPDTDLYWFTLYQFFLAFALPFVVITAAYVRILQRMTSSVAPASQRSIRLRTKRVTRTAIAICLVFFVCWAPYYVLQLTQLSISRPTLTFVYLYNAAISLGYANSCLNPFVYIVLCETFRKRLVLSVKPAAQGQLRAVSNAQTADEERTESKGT

## CCCCc1oc2ccccc2c1C(=O)c1ccc(O)cc1
[1]
  IC50: 0.544 µM (active)

## O=C(NCc1ccccc1O)c1cccs1
[2]
  Kd: 2.3 µM (active)

## COC(=O)c1cn(C(=O)c2cccs2)c2ccccc12
[3]
  EC50: > 50 µM (not active)

## CC(C)n1cnc2c(Nc3cccc(Cl)c3)nc(N(CCO)CCCO)nc21
[4]
  EC50: 10.8 µM (active)
[5]
  IC50: > 20 µM (inactive)
[6]
  EC50: 10.7 µM (active)
[7]
  AC50: 0.463 µM (active)
[8]
  EC50: 9.32 µM (active)

## O=C(O)c1ccc(N/N=C/c2cc3c(cc2[N+](=O)[O-])OCO3)cc1
[9]
  IC50: 21.8 µM (active)
[10]
  IC50: 48.8 µM (active)

## Cc1cccc(-n2ccnc2CN2CCC(CO)(CC3CCCCO3)CC2)c1 (stereo not given)
[11]
  EC50: > 32 µM (inactive)
[12]
  IC50: > 32 µM (inactive)
[13]
  EC50: > 10 µM (inactive)
[14]
  IC50: > 32 µM (inactive)
[15]
  IC50: > 32 µM (inactive)
[16]
  EC50: 5.82 µM (active)
[17]
  EC50: > 32 µM (inactive)

## CCc1ccc(Oc2c(Cl)cnn(-c3ccc(C)cc3)c2=O)cc1
[18]
  IC50: 5 µM (active)

## CCOC(=O)OCC1C=C[C@H](c2cc(-c3ccccc3)ccc2O)C(c2ccc(C(C)=O)cc2)O1 (stereo not given in full)
[19]
  AC50: 6.31 µM (inconclusive)

## O=C(Nc1sc2c(c1-c1nc3ccccc3[nH]1)CCCC2)C1CC1
[20]
  EC50: > 35.4 µM (not active)
[21]
  EC50: > 35.4 µM (not active)
[22]
  EC50: 17.3 µM (not active)

## COc1ccc(C(=O)/C=C/c2ccc(-c3ccccc3)cc2)cc1CSCC(=O)O
[23]
  CC50: > 25 µM (active)
[24]
  IC50: > 25 µM (active)
[25]
  IC50: 9.89 µM (active)
[26]
  EC50: > 300 µM (not active)
[27]
  EC50: 8.81 µM (active)
[28]
  IC50: 37.7 µM (active)
[29]
  CC50: 29.5 µM (active)
[30]
  IC50: 9.8 µM (active)
[31]
  EC50: > 150 µM (not active)
[32]
  EC50: > 300 µM (not active)
[33]
  EC50: 4.28 µM (active)
[34]
  AC50: 9.3 µM (active)

## Cc1ccc(-c2nc3n(n2)Cc2ccccc2-3)cc1
[35]
  EC50: 2.87 µM (active)
[36]
  EC50: > 67.5 µM (inactive)
[6]
  EC50: 0.364 µM (active)
[37]
  EC50: > 50 µM (not active)
[38]
  EC50: > 67.5 µM (inactive)
[8]
  EC50: 6.59 µM (active)
